21 molecules from patent US7498343B2, “Mycobacterial inhibitors” (priority 2002, dated 2009) can be followed below.

A word on the pIC50: it is −log10 of the IC50, conventionally taken in molar units.

One assay has as its system M. Smegmatis ATCC607. Kind of assay: In-vitro method for testing compounds for anti-bacterial activity against strain M. smegmatis ATCC607 (Alamar Blue growth inhibition). The format is cell-based. The note with it: M. smegmatis ATCC607, pIC50 = -logIC50, IC50 in M, 50% inhibitory concentration for bacterial growth, 48 hours incubation; for IC50: Mycolicibacterium smegmatis, ATCC607, 48 h, read-out: pIC50 (converted). The essentials: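 About 250 CFU/well M. smegmatis ATCC607 in Mueller-Hinton broth exposed to five-fold serial compound dilutions, 48 h at 37 °C, humidified 5% CO2. Growth read by Alamar Blue fluorescence (ex 530/em 590 nm) after 2 h further incubation; % growth inhibition calculated.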
On the technique in general: The colour change of resazurin is a common sign of viable cells or microbes.

In assay [1] the test system is Mycobacterium tuberculosis (strain H37RV). In words: In-vitro method for testing compounds against M. tuberculosis (resazurin growth inhibition, MIC). The format is cell-based. The note with it: MIC data representing IC90's, 7 days incubation, resazurin fluorescence.
[2] abbreviates: Mycobacterium tuberculosis, H37RV, 168 h, read-out: MIC.

≈ marks a conversion by molar mass, not a printed value. Where two headings read alike, the source gives them in different places.

On to `CCN(CC)CCC(O)(c1ccccc1)C(c1ccccc1)c1cc2cc(Br)ccc2nc1OC` (stereo not drawn) [Compound 18], for which, in the assay on M. Smegmatis ATCC607, the IC50 was 200 nM. In addition, in assay [1] (setting [2]), the MIC was 10.6 µg/mL (≈ 19.9 µM).
`CCN(CC)CCC(O)(c1ccccc1)C(c1ccccc1)c1cc2cc(Br)ccc2nc1OC` (stereo not drawn) [Compound 19] gave a pIC50 in the assay on M. Smegmatis ATCC607 of 6.5. Further, the MIC in assay [1] is given as 6.72 microgram/ml.
The corresponding values for `COc1nc2ccc(Br)cc2cc1C(c1ccccc1)C(O)(CCN(C)C)c1cccc(F)c1` (stereo not drawn) [Compound 38] are 7.9 and 8.30 microgram/ml.
The corresponding values for `COc1nc2ccc(Br)cc2cc1C(c1ccccc1)C(O)(CCN(C)C)c1cccc(F)c1` (stereo not drawn) [Compound 39] are 6.1 and 8.30 microgram/ml.
`COc1nc2ccc(Br)cc2cc1C(c1ccccc1)C(O)(CCN)c1ccccc1` (stereo not drawn) [Compound 44] returned a pIC50 with M. Smegmatis ATCC607 of 5.9. This molecule also had an MIC in assay [1] of 6.01 microgram/ml.
`COc1nc2ccc(Br)cc2cc1C(c1ccccc1)C(O)(CCN1CCCCC1)c1ccccc1` (stereo not drawn) [Compound 47] displayed a pIC50 with M. Smegmatis ATCC607 of 6.5. For the same molecule, in assay [1] (setting [2]), the MIC was 8.65 µg/mL (≈ 15.9 µM).
`COc1nc2ccc(Br)cc2cc1C(c1ccccc1)C(O)(CCN1CCCCC1)c1ccccc1` (stereo not drawn) [Compound 48] showed a pIC50 with M. Smegmatis ATCC607 of 5.8. Also, the MIC in assay [1] worked out at 8.65 microgram/ml.
Regarding `COc1nc2ccc(Br)cc2cc1C(c1ccccc1)C(O)(CCn1ccnc1)c1ccccc1` (stereo not drawn) [Compound 49], the pIC50 with M. Smegmatis ATCC607 worked out at 5.4. Besides, in assay [1] (setting [2]), the MIC was determined as 52.9 µg/mL (≈ 100 µM).
As for `COc1nc2ccc(Br)cc2cc1C(c1ccccc1)C(O)(CCn1ccnc1)c1ccccc1` (stereo not drawn) [Compound 50], the pIC50 with M. Smegmatis ATCC607 is listed as 5.0. This molecule displayed an MIC in assay [1] of 52.85 microgram/ml.
`CNCCC(O)(c1cccc2ccccc12)C(c1ccccc1)c1cc2cc(Br)ccc2nc1OC` (stereo not drawn) [Compound 56]: the IC50 in the assay with M. Smegmatis ATCC607 is 63.1 nM. In assay [1] (setting [2]), the MIC worked out at 43 µg/mL (≈ 79.4 µM).
In the assay on M. Smegmatis ATCC607, `COc1nc2ccc(Br)cc2cc1C(c1ccccc1)C(O)(CCN(C)C)c1cc(F)ccc1F` (stereo not drawn) [Compound 67] showed a pIC50 of 8.6. Further, the MIC in assay [1] was 0.34 microgram/ml.
The corresponding values for `COc1nc2ccc(Br)cc2cc1C(c1ccccc1)C(O)(CCN(C)C)c1cccc(F)c1` (stereo not drawn) [Compound 109] are 8.2 and 0.33 microgram/ml.
`COc1nc2ccc(Br)cc2cc1C(c1ccccc1)C(O)(CCN(C)C)c1cc(F)ccc1F` (stereo not drawn) [Compound 110] showed a pIC50 in the assay with M. Smegmatis ATCC607 of 8.5. Besides, in assay [1], the MIC is 0.34 microgram/ml.
For `COc1nc2ccc(Br)cc2cc1C(c1ccccc1)C(O)(CCN(C)C)c1cc(F)ccc1F` (stereo not drawn) [Compound 111], in the assay on M. Smegmatis ATCC607, the pIC50 is 6.4. In addition, the MIC in assay [1] is recorded as 1.71 microgram/ml.
The like results for `COc1nc2ccc(Br)cc2cc1C(c1ccccc1)C(O)(CCN(C)C)c1cc(F)cc(F)c1` (stereo not drawn) [Compound 115] were, in that order, 8.6 and 0.07 microgram/ml.
Turning to `COc1nc2ccc(Br)cc2cc1C(c1ccccc1)C(O)(CCN(C)C)c1cc(F)cc(F)c1` (stereo not drawn) [Compound 116], the pIC50 in the assay on M. Smegmatis ATCC607 is given as 6.6. The MIC in assay [1] came out at 8.58 microgram/ml.
Turning to `COc1nc2ccc(Br)cc2cc1C(c1ccccc1)C(O)(CCN(C)C)c1cc(F)cc(F)c1` (stereo not drawn) [Compound 117], the pIC50 in the assay with M. Smegmatis ATCC607 is on record as 6.7. In addition, the MIC in assay [1] stood at 1.71 microgram/ml.
In the case of `COc1nc2ccc(Br)cc2cc1C(c1ccccc1)C(O)(CCN(C)C)c1cc(F)cc(F)c1` (stereo not drawn) [Compound 118], in the assay on M. Smegmatis ATCC607, the pIC50 was determined as 9.1. In assay [1], the MIC amounted to 0.01 microgram/ml.
`COc1nc2ccc(Br)cc2cc1C(c1ccccc1)C(O)(CCN1CCCCC1)c1ccc2ccccc2c1` (stereo not drawn) [Compound 129]: the pIC50 in the assay on M. Smegmatis ATCC607 amounted to 4.7. For the same molecule, the MIC in assay [1] (setting [2]) was 47.3 µg/mL (≈ 79.4 µM).
The corresponding values for `CCN(C)CCC(O)(c1ccc2ccccc2c1)C(c1ccccc1)c1cc2cc(Br)ccc2nc1OC` (stereo not drawn) [Compound 141] are 7.3 and 9.03 µg/mL (≈ 15.9 µM).
The molecule `CCN(C)CCC(O)(c1ccc2ccccc2c1)C(c1ccccc1)c1cc2cc(Br)ccc2nc1OC` (stereo not drawn) [Compound 142] yielded a pIC50 in the assay on M. Smegmatis ATCC607 of 6.2. In assay [1], this molecule gave an MIC of 9.03 microgram/ml.
